System: Pseudomonas aeruginosa PAM1001
Experiment: checkerboard assay (broth microdilution): levofloxacin MIC in presence of efflux pump inhibitor
Format: cell-based
How it was run: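 Reduction of levofloxacin MIC by an efflux pump inhibitor measured against Pseudomonas aeruginosa PAM1001. Each microdilution well held a unique combination of levofloxacin and inhibitor (max 40 μg/mL) in MHB, inoculum 5×10^5 CFU/mL. Readout after 20 h, 35° C: OD650 plus visual inspection.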

Row | Structure (SMILES) | Levofloxacin MIC Against P. aerugiuosa PAM1001 in Presence of Efflux Pump Inhibitor (EPI), Minimum Inhibitory Concentration (EPI Conc. 0 μg/mL) [µg/mL] | Levofloxacin MIC Against P. aerugiuosa PAM1001 in Presence of Efflux Pump Inhibitor (EPI), Minimum Inhibitory Concentration (EPI Conc. 0.625 μg/mL) [µg/mL] | Levofloxacin MIC Against P. aerugiuosa PAM1001 in Presence of Efflux Pump Inhibitor (EPI), Minimum Inhibitory Concentration (EPI Conc. 1.25 μg/mL) [µg/mL] | Levofloxacin MIC Against P. aerugiuosa PAM1001 in Presence of Efflux Pump Inhibitor (EPI), Minimum Inhibitory Concentration (EPI Conc. 2.5 μg/mL) [µg/mL] | Levofloxacin MIC Against P. aerugiuosa PAM1001 in Presence of Efflux Pump Inhibitor (EPI), Minimum Inhibitory Concentration (EPI Conc. 5 μg/ mL) [µg/mL] | Levofloxacin MIC Against P. aerugiuosa PAM1001 in Presence of Efflux Pump Inhibitor (EPI), Minimum Inhibitory Concentration (EPI Conc. 10 μg/mL) [µg/mL] | Levofloxacin MIC Against P. aerugiuosa PAM1001 in Presence of Efflux Pump Inhibitor (EPI), Minimum Inhibitory Concentration (EPI Conc. 20 μg/mL) [µg/mL] | Levofloxacin MIC Against P. aerugiuosa PAM1001 in Presence of Efflux Pump Inhibitor (EPI), Minimum Inhibitory Concentration (EPI Conc. 40 μg/mL) [µg/mL]
1 | NCC(=O)N[C@H]1CN[C@H](C(=O)N[C@@H](CCc2ccccc2)c2nc3ccccc3[nH]2)C1 [Compound M78] | 4 | 4 | 4 | 4 | 4 | 2 | 1 | 0.125
2 | NCC(=O)N[C@H]1CN[C@H](C(=O)NCc2nc3cc(Cc4ccccc4)ccc3[nH]2)C1 [Compound M79, (2S,4R)-4-(2-Aminoacetamido)-N-[(5-benzyl-2-benzimidazolyl)methyl]-2-pyrrolidinexarboxamide] | 4 | 4 | 4 | 4 | 4 | 2 | 1 | 0.125
3 | NCC(=O)N[C@H]1CN[C@H](C(=O)NCc2nc3ccccc3n2CCc2ccccc2)C1 [Compound M80, (2S,4R)-4-(2-Aminoacetamido)-N-[(1-(2-phenyl)ethyl-2-benzimidazoly)methyl]-2-pyrrolidinexarboxamide] | 4 | 4 | 4 | 4 | 2 | 0.25 | 0.06 | 0.06
4 | CC(C)(C)c1ccc2nc(CNC(=O)[C@@H]3C[C@@H](NC(=O)CN)CN3)[nH]c2c1 [Compound M81] | 4 | 4 | 4 | 4 | 2 | 1 | 0.25 | 0.03
5 | NCC(=O)N[C@H]1CN[C@H](C(=O)NCc2nc3cc(C(O)c4ccccc4)ccc3[nH]2)C1 (stereo partly drawn) [Compound M82, (2S,4R)-4-(2-Aminoacetamido)-N-[(5-(1-hydroxy-1-phenyl)methyl-2-benzimidazolyl)methyl]-2-pyrrolidinecarboxaniide] | 4 | 4 | 4 | 2 | 1 | 0.25 | 0.125 | 0.06
6 | NCC(=O)N[C@H]1CN[C@H](C(=O)N[C@@H](CCc2ccccc2)c2nc3ccccc3o2)C1 [Compound M85, (2S,4R)-4-(2-Aminoacetamido)-N-[(1S)-1-(2-benzoxazoiyl)-3-phenylpropyl]-2-pyrrolidinecarboxamide] | 4 | 4 | 4 | 4 | 4 | 2 | 0.50 | 0.03
7 | NC[C@H]1CN[C@@H](C(=O)NCc2nc3ccc(Cc4ccccc4)cc3[nH]2)C1 [Compound M87, (2R,4S)-4-(Aminomethyl)-N-[(5-benzyl-2-benzimidazoiyl)methyl]-2-pyrrolidinecarboxamide] | 4 | 4 | 4 | 1 | 0.125 | 0.06 | 0.03 | –
8 | NC[C@@H]1CN[C@@H](C(=O)NCc2nc3ccc(-c4ccccc4)cc3[nH]2)C1 [Compound M89, (2R,4R)-4-(Aminomethyl)-N-[(5-phenyl-2-benzimidaxolyl)methyl]-2-pyrrolidinecarboxamide] | 4 | 4 | 4 | 4 | 2 | 2 | 0.03 | 0.03

Reference: US6399629B1, “Efflux pump inhibitors” (priority 1998, dated 2002)
